Laboratory results reported in patent US20090105305A1, “Therapeutic Agents - 550” (AstraZeneca AB, priority 2006, published 2009).

The compounds below were run against T1, human Fatty Acid Synthase (Homo sapiens, UniProt P49327) (assay: Human FAS enzyme assay (decrease in NADPH fluorescence)). Settings: % inhibition at a concentration of 100 micromolar.
T1 construct: made in house
Format: biochemical
Excerpt: The compounds of the present invention are Fatty Acid Synthase inhibitors. […] Human and Rat FAS Enzyme Assay.
Fatty acid synthase is an enzyme complex that harbours seven enzymatic activities catalysing the reductive synthesis of long chain fatty acids from acetyl CoA and malonyl CoA to palmitate. When acetyl CoA and malonyl CoA are forming palmitate NADPH is consumed forming NADP. Since NADPH is fluorescent but not NADP the reaction can be measured by analysing the decrease in fluorescence.
Compounds were added to a black 384 well plate (Matrix) in a volume of 5 μl consisting of 20% DMSO and 80% Tris buffer pH 7.5, at a top concentration of 1 mM. NADPH, 30 μl of 166.6 μM, formulated in assay buffer (0.1M Tris ph7.5, 0.1 mM EDTA, 1 mM glutathione, 0.05% BSA), was then added to all of the wells of the plate. Fatty acid synthase Human or rat enzyme (0.4 μg, produced in house), dissolved in 20 mM Tris/HCl pH 7.5, 5 mM BOG, 1 mM TCEP, 10% glycerol, 1 mM EDTA, 150 mM NaCl, was then added to the plate in a volume of […]. Enzyme was added to all but the last two columns of the plate, to which, 10 μl of assay buffer was added (0.1M Tris ph7.5, 0.1 mM EDTA, 1 mM glutathione, 0.05% BSA) to provide a no enzyme assay control. Following a 15-minute incubation period, at room temperature, the plates were read on an Envision plate reader using 340 nm excitation and 460 nm emission filters. This served as a time zero background read. Substrates (an equal mix of both malonyl and acetyl CoA) were then added to the plates in a total volume of 5 μl. The concentrations of malonyl and acetyl CoA in the mixture were 500 μM and 150 μM respectively. Both were prepared as 10 mM stock solutions in distilled water and were subsequently diluted to working concentrations in assay buffer. Plates were then incubated for a further 60 minutes, at room temperature, before being read again on the Envision reader using the same parameters as previously used. The data was analysed by subtracting the background time zero data from that generated following the final 60 minute incubate and the percent inhibition compared to the maximum and minimum assay controls was determined. Sigmoid curves were fitted using Origin 7.5 Client software and IC50 values were determined.

T1 sequence (P49327 whole entry): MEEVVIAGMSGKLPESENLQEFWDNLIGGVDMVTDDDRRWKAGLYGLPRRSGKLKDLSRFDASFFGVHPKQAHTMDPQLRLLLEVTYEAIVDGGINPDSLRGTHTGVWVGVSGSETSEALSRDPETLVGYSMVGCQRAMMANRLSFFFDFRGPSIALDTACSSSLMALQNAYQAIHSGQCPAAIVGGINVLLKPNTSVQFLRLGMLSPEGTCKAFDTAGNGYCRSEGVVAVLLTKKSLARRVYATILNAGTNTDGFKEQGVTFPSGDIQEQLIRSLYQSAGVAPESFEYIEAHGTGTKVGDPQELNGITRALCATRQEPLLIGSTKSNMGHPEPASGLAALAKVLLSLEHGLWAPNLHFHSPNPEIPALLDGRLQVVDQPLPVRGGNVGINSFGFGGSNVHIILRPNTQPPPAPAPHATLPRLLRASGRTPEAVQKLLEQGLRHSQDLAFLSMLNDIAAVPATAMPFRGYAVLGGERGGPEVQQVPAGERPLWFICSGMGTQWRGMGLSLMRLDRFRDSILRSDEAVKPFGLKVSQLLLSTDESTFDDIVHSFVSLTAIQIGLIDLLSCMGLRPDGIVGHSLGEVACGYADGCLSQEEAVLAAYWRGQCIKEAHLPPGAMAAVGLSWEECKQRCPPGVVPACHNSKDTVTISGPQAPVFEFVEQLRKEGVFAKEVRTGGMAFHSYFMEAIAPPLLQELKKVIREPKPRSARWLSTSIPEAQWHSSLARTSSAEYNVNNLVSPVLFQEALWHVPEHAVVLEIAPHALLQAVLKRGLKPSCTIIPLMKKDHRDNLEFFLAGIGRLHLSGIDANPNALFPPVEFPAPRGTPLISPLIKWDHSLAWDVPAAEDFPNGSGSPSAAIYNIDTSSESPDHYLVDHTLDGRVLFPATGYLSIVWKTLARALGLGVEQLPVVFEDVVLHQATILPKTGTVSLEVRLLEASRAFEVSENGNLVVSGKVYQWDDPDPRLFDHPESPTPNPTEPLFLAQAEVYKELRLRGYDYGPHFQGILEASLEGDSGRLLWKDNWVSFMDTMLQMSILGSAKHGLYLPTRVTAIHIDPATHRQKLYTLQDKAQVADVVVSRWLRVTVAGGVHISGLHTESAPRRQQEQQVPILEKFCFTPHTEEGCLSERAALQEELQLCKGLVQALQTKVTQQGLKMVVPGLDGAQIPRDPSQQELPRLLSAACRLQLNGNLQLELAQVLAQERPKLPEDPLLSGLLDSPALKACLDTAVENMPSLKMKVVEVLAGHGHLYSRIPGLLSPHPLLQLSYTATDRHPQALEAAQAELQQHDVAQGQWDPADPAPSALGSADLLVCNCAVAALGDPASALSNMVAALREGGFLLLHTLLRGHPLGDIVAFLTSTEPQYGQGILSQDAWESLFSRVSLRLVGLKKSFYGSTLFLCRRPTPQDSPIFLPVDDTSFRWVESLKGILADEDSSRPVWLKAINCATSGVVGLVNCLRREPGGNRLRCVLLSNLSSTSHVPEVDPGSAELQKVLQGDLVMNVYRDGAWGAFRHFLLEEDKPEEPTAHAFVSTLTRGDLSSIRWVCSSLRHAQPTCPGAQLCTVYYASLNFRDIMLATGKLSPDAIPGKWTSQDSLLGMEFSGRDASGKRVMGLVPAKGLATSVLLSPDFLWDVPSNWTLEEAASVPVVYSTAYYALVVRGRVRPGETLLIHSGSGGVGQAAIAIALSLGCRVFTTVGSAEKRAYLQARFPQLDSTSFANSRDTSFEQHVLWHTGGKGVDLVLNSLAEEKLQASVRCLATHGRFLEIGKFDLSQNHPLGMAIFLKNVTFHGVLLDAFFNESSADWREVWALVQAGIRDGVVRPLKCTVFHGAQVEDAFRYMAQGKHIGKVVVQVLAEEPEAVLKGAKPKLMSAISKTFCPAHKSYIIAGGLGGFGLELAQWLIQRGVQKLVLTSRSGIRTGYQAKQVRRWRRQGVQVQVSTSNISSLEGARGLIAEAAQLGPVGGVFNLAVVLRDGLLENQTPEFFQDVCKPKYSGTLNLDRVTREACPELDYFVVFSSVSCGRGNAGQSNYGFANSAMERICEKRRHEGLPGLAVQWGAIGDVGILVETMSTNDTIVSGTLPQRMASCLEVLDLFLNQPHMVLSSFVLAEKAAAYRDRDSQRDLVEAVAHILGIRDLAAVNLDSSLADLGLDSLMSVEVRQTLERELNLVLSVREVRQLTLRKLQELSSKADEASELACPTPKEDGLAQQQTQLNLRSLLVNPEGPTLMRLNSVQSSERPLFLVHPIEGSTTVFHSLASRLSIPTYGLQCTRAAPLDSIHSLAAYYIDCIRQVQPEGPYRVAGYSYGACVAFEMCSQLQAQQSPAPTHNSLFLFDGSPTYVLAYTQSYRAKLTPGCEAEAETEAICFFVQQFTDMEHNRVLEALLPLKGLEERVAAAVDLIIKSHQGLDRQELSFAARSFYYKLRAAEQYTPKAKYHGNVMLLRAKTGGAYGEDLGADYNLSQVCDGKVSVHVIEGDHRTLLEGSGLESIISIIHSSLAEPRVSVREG

SMILES	inhibition at 100 µM [%]
Cc1ccc(C(=O)N2CCC(c3ccc(C#N)cc3)CC2)cc1NS(=O)(=O)CC(O)CN(C)C (stereo not drawn) [Example 150, N-[5-[4-(4-cyanophenyl)piperidine-1-carbonyl]-2-methyl-phenyl]-3-dimethylamino-2-hydroxy-propane-1-sulfonamide]	88
CCCCS(=O)(=O)Nc1cc(C(=O)N2CCC(c3ccc(C#N)cc3)CC2)ccc1C [Example 12, N-[5-[4-(4-cyanophenyl)piperidine-1-carbonyl]-2-methyl-phenyl]butane-1-sulfonamide]	90
CS(=O)(=O)c1ccc(C(=O)N2CCC(c3ccc(C#N)cc3)CC2)cc1NS(=O)(=O)Cc1ccccc1 [Example 135, N-[5-[4-(4-cyanophenyl)piperidine-1-carbonyl]-2-methylsulfonyl-phenyl]-1-phenyl-methanesulfonamide]	100
Cc1ccc(NS(=O)(=O)Cc2ccccc2F)cc1C(=O)N1CCC(c2ccc(C#N)cc2)CC1 [Example 51, N-[3-[4-(4-cyanophenyl)piperidine-1-carbonyl]-4-methyl-phenyl]-1-(2-fluorophenyl)methanesulfonamide]	94
COc1ccc(NS(C)(=O)=O)cc1C(=O)N1CCC(c2ccc(C#N)cc2)CC1 [Example 197, N-[3-[4-(4-cyanophenyl)piperidine-1-carbonyl]-4-methoxyphenyl]methanesulfonamide]	71
Cc1ccc(C(=O)N2CCC(c3ccc(C#N)cc3)CC2)cc1NS(=O)(=O)CCNS(C)(=O)=O [Example 77, N-[5-[4-(4-cyanophenyl)piperidine-1-carbonyl]-2-methyl-phenyl]-2-methanesulfonamido-ethanesulfonamide]	98
Cc1ccc(C(=O)N2CCC(c3ccc(-c4nccs4)cc3)CC2)cc1NS(C)(=O)=O [Example 170, N-[2-methyl-5-[4-[4-(1,3-thiazol-2-yl)phenyl]piperidine-1-carbonyl]phenyl]methanesulfonamide]	74
CCS(=O)(=O)Nc1cc(C(=O)N2CCC(c3ccc(C#N)cc3)CC2)c(C)cc1C [Example 166, N-[5-[4-(4-cyanophenyl)piperidine-1-carbonyl]-2,4-dimethylphenyl]ethanesulfonamide]	96
CCC(C)S(=O)(=O)Nc1ccc(C)c(C(=O)N2CCC(c3ccc(C#N)cc3)CC2)c1 (racemic) [Example 44, (RS) N-[3-[4-(4-cyanophenyl)piperidine-1-carbonyl]-4-methyl-phenyl]butane-2-sulfonamide]	89
Cc1ccc(C(=O)N2CCC(c3ccc(C#N)cc3)CC2)cc1NS(=O)(=O)c1cnn(C)c1 [Example 145, N-[5-[4-(4-cyanophenyl)piperidine-1-carbonyl]-2-methyl-phenyl]-1-methyl-pyrazole-4-sulfonamide]	97
COc1ccc(C2CCN(C(=O)c3ccc(C)c(NS(C)(=O)=O)c3)CC2)cc1 [Example 162, N-[5-[4-(4-methoxyphenyl)piperidine-1-carbonyl]-2-methylphenyl]methanesulfonamide]	86
Cc1ccc(C(=O)N2CCC(O)(c3ccc(Br)cc3)CC2)cc1NS(=O)(=O)Cc1ccccc1 [Example 201, N-[5-[4-(4-bromophenyl)-4-hydroxypiperidine-1-carbonyl]-2-methylphenyl]-1-phenylmethanesulfonamide]	68
Cc1ccc(C(=O)N2CCC(c3ccc(C#N)cc3)CC2)cc1NS(=O)(=O)Cc1ccccc1F [Example 26, N-[5-[4-(4-cyanophenyl)piperidine-1-carbonyl]-2-methyl-phenyl]-1-(2-fluorophenyl)methanesulfonamide]	94
COCC(=O)NCCS(=O)(=O)Nc1cc(C(=O)N2CCC(c3ccc(C#N)cc3)CC2)ccc1C [Example 87, N-[2-[[5-[4-(4-cyanophenyl)piperidine-1-carbonyl]-2-methyl-phenyl]sulfamoyl]ethyl]-2-methoxy-acetamide]	82
CCCCS(=O)(=O)Nc1ccc(C)c(C(=O)N2CCC(c3ccc(C#N)cc3)CC2)c1 [Example 37, N-[3-[4-(4-cyanophenyl)piperidine-1-carbonyl]-4-methyl-phenyl]butane-1-sulfonamide]	91
Cc1ccc(C(=O)N2CCC(c3ccc(C#N)cc3)CC2)cc1NS(=O)(=O)CCNC(=O)c1ccccc1 [Example 86, N-[2-[[5-[4-(4-cyanophenyl)piperidine-1-carbonyl]-2-methyl-phenyl]sulfamoyl]ethyl]benzamide]	100
Cc1ccc(Oc2ccc(C3CCN(C(=O)c4ccc(C)c(NS(C)(=O)=O)c4)CC3)cc2)nn1 [Example 229, N-[2-methyl-5-[4-[4-(6-methylpyridazin-3-yl)oxyphenyl]piperidine-1-carbonyl]phenyl]methanesulfonamide]	80.2
Cc1ccc(C(=O)N2CCC(c3ccc(OC(F)(F)F)cc3)CC2)cc1NS(C)(=O)=O [Example 180, N-[2-methyl-5-[4-[4-(trifluoromethoxy)phenyl]piperidine-1-carbonyl]phenyl]methanesulfonamide]	96
CNS(=O)(=O)c1ccc(C2CCN(C(=O)c3ccc(C)c(NS(C)(=O)=O)c3)CC2)cc1 [Example 183, 4-[1-(3-methanesulfonamido-4-methylbenzoyl)piperidin-4-yl]-N-methylbenzenesulfonamide]	90
Cc1ccc(C(=O)N2CCC(c3ccc(C(=O)c4nccs4)cc3)CC2)cc1NS(C)(=O)=O [Example 188, N-[2-methyl-5-[4-[4-(1,3-thiazole-2-carbonyl)phenyl]piperidine-1-carbonyl]phenyl]methanesulfonamide]	110
CCOC(=O)NCc1ccc(C2CCN(C(=O)c3ccc(C)c(NS(C)(=O)=O)c3)CC2)cc1 [Example 228, Ethyl N-[[4-[1-(3-methanesulfonamido-4-methylbenzoyl)piperidin-4-yl]phenyl]methyl]carbamate]	85.5
CS(=O)(=O)Nc1cccc(C(=O)N2CCC(c3ccc(C#N)cc3)CC2)c1 [Example 203, N-[3-[4-(4-cyanophenyl)piperidine-1-carbonyl]phenyl]methanesulfonamide]	71
Cc1ccc(C(=O)N2CCC(c3ccc(Oc4ccccn4)cc3)CC2)cc1NS(C)(=O)=O [Example 187, N-[2-methyl-5-[4-(4-pyridin-2-yloxyphenyl)piperidine-1-carbonyl]phenyl]methanesulfonamide]	100
COCCCS(=O)(=O)Nc1cc(C(=O)N2CCC(c3ccc(C#N)cc3)CC2)ccc1C [Example 110, N-[5-[4-(4-cyanophenyl)piperidine-1-carbonyl]-2-methyl-phenyl]-3-methoxy-propane-1-sulfonamide]	86
Cc1ccc(C(=O)N2CCC(c3ccc(C#N)c(Cl)c3)CC2)cc1NS(C)(=O)=O [Example 218, N-[5-[4-(3-chloro-4-cyanophenyl)piperidine-1-carbonyl]-2-methylphenyl]methane-sulfonamide]	67

Same assay, conditions: compounds excluded from the claims by proviso

SMILES	IC50s in the range of about 0.001 μM to about 30 μM
Cc1ccc(C(=O)N2CCC(c3ccc(S(=O)(=O)N4CC[C@@H](O)C4)cc3)CC2)cc1NS(C)(=O)=O [N-[5-[4-[4-[(3R)-3-hydroxypyrrolidin-1-yl]sulfonylphenyl]piperidine-1-carbonyl]-2-methylphenyl]methanesulfonamide]	do not have IC50s in the range of about 0.001 μM to about 30 μM
Cc1ccc(C(=O)N2CCC(c3ccc(C#N)cc3)CC2)cc1NS(=O)(=O)c1ccccc1C(=O)O [2-[[5-[4-(4-cyanophenyl)piperidine-1-carbonyl]-2-methylphenyl]sulfamoyl]benzoic acid]	do not have IC50s in the range of about 0.001 μM to about 30 μM
Cc1ccc(C(=O)N2CCC(c3ccc(C(=O)N(C)C)cc3)CC2)cc1NS(C)(=O)=O [4-[1-(3-methanesulfonamido-4-methylbenzoyl)piperidin-4-yl]-N,N-dimethylbenzamide]	do not have IC50s in the range of about 0.001 μM to about 30 μM
CS(=O)(=O)Cc1ccc(C(=O)N2CCC(c3ccc(C#N)cc3)CC2)cc1NS(C)(=O)=O [N-[5-[4-(4-cyanophenyl)piperidine-1-carbonyl]-2-(methylsulfonylmethyl)phenyl]methanesulfonamide]	do not have IC50s in the range of about 0.001 μM to about 30 μM

Same assay, conditions: unit inferred

SMILES	IC50 [nM]
Cc1ccc(C(=O)N2CCC(c3ccc(C#CCCO)cc3)CC2)cc1NS(C)(=O)=O [Example 251, N-[5-[4-[4-(4-hydroxybut-1-ynyl)phenyl]piperidine-1-carbonyl]-2-methylphenyl]methanesulfonamide]	663
